Experimental data reported in patent publication US8802597B2, “Herbicidal pyrimidines” (E I du Pont de Nemours and Company, priority 2003, dated 2014).

Tests used:
Assay in all cases: Test E flooded paddy water application
Format in all cases: in vivo
[1] = test system: barnyardgrass (Echinochloa crus-galli); conditions: Flood, 21 days, scale 0 to 100 (0 no effect, 100 complete control); for Plant response rating, Barnyardgrass: 16 g ai/ha
Procedure, shortened: (§1)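 Response scored visually on a 0–100 scale (100 = complete control) at 21 days against untreated pots. Treatment was into paddy water 3 cm deep over silt loam, with plants at the 2.0–2.5-leaf stage, grown under 16-h light at 29.5/26.7 °C day/night.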

[2] = test system: bearded (brdd.) sprangletop (Leptochloa fusca ssp. fascicularis); conditions: Flood, 21 days, scale 0 to 100 (0 no effect, 100 complete control)
Procedure, shortened: as §1

[3] = test system: ducksalad (Heteranthera limosa); conditions: Flood, 21 days, scale 0 to 100 (0 no effect, 100 complete control); for Plant response rating, Ducksalad: 16 g ai/ha
Procedure, shortened: as §1

[4] = test system: early watergrass (Echinochloa oryzoides); conditions: Flood, 21 days, scale 0 to 100 (0 no effect, 100 complete control)
Procedure, shortened: as §1

[5] = test system: junglerice (Echinochloa colona); conditions: Flood, 21 days, scale 0 to 100 (0 no effect, 100 complete control)
Procedure, shortened: as §1

[6] = test system: purple redstem (Ammannia coccinea); conditions: Flood, 21 days, scale 0 to 100 (0 no effect, 100 complete control)
Procedure, shortened: as §1

[7] = test system: rice flatsedge (Cyperus iria); conditions: Flood, 21 days, scale 0 to 100 (0 no effect, 100 complete control)
Procedure, shortened: as §1

[8] = test system: transplanted rice seedlings (Oryza sativa cv. ‘Japonica-M202’); conditions: Flood, 21 days, scale 0 to 100 (0 no effect, 100 complete control)
Procedure, shortened: as §1

[9] = test system: water seeded rice seedlings (Oryza sativa cv. ‘Japonica-M202’); conditions: Flood, 21 days, scale 0 to 100 (0 no effect, 100 complete control)
Procedure, shortened: as §1

COC(=O)c1nc(-c2ccc(Br)cc2)nc(N)c1Cl [Compound 96, methyl 6-amino-2-(4-bromophenyl)-5-chloro-4-pyrimidinecarboxylate]
Barnyardgrass plant response rating ([1]; 32 g ai/ha): 0
Barnyardgrass plant response rating ([1]; 64 g ai/ha): 0
Barnyardgrass plant response rating ([1]; 125 g ai/ha): 0
Barnyardgrass plant response rating ([1]; 250 g ai/ha): 0
Plant response rating, Barnyardgrass [1]: 0
Sprangletop, Brdd. plant response rating ([2]; 32 g ai/ha): 0
Sprangletop, Brdd. plant response rating ([2]; 64 g ai/ha): 0
Sprangletop, Brdd. plant response rating ([2]; 125 g ai/ha): 0
Sprangletop, Brdd. plant response rating ([2]; 250 g ai/ha): 0
Plant response rating, Sprangletop, Brdd. ([2]; 16 g ai/ha): 0
Ducksalad plant response rating ([3]; 32 g ai/ha): 100
Ducksalad plant response rating ([3]; 64 g ai/ha): 100
Ducksalad plant response rating ([3]; 125 g ai/ha): 100
Ducksalad plant response rating ([3]; 250 g ai/ha): 100
Plant response rating, Ducksalad [3]: 100
Watergrass, Early plant response rating ([4]; 32 g ai/ha): 0
Watergrass, Early plant response rating ([4]; 64 g ai/ha): 0
Watergrass, Early plant response rating ([4]; 125 g ai/ha): 0
Watergrass, Early plant response rating ([4]; 250 g ai/ha): 0
Plant response rating, Watergrass, Early ([4]; 16 g ai/ha): 0
Junglerice plant response rating ([5]; 32 g ai/ha): 0
Junglerice plant response rating ([5]; 64 g ai/ha): 0
Junglerice plant response rating ([5]; 125 g ai/ha): 0
Junglerice plant response rating ([5]; 250 g ai/ha): 0
Plant response rating, Junglerice ([5]; 16 g ai/ha): 0
Redstem plant response rating ([6]; 32 g ai/ha): 85
Redstem plant response rating ([6]; 64 g ai/ha): 90
Redstem plant response rating ([6]; 125 g ai/ha): 100
Redstem plant response rating ([6]; 250 g ai/ha): 100
Plant response rating, Redstem ([6]; 16 g ai/ha): 0
Flatsedge, Rice plant response rating ([7]; 32 g ai/ha): 100
Flatsedge, Rice plant response rating ([7]; 64 g ai/ha): 100
Flatsedge, Rice plant response rating ([7]; 125 g ai/ha): 100
Flatsedge, Rice plant response rating ([7]; 250 g ai/ha): 100
Plant response rating, Flatsedge, Rice ([7]; 16 g ai/ha): 100
Rice, Transplanted plant response rating ([8]; 32 g ai/ha): 0
Rice, Transplanted plant response rating ([8]; 64 g ai/ha): 0
Rice, Transplanted plant response rating ([8]; 125 g ai/ha): 10
Rice, Transplanted plant response rating ([8]; 250 g ai/ha): 20
Plant response rating, Rice, Transplanted ([8]; 16 g ai/ha): 0
Rice, Water Seeded plant response rating ([9]; 32 g ai/ha): 0
Rice, Water Seeded plant response rating ([9]; 64 g ai/ha): 0
Rice, Water Seeded plant response rating ([9]; 125 g ai/ha): 10
Rice, Water Seeded plant response rating ([9]; 250 g ai/ha): 10
Plant response rating, Rice, Water Seeded ([9]; 16 g ai/ha): 0

COC(=O)c1nc(-c2ccc(I)cc2)nc(N)c1Br [Compound 128]
Barnyardgrass plant response rating ([1]; 32 g ai/ha): 0
Barnyardgrass plant response rating ([1]; 64 g ai/ha): 0
Barnyardgrass plant response rating ([1]; 125 g ai/ha): 0
Barnyardgrass plant response rating ([1]; 250 g ai/ha): 0
Plant response rating, Barnyardgrass [1]: 0
Sprangletop, Brdd. plant response rating ([2]; 32 g ai/ha): 0
Sprangletop, Brdd. plant response rating ([2]; 64 g ai/ha): 0
Sprangletop, Brdd. plant response rating ([2]; 125 g ai/ha): 0
Sprangletop, Brdd. plant response rating ([2]; 250 g ai/ha): 80
Plant response rating, Sprangletop, Brdd. ([2]; 16 g ai/ha): 0
Ducksalad plant response rating ([3]; 32 g ai/ha): 100
Ducksalad plant response rating ([3]; 64 g ai/ha): 100
Ducksalad plant response rating ([3]; 125 g ai/ha): 100
Ducksalad plant response rating ([3]; 250 g ai/ha): 100
Plant response rating, Ducksalad [3]: 95
Watergrass, Early plant response rating ([4]; 32 g ai/ha): 0
Watergrass, Early plant response rating ([4]; 64 g ai/ha): 0
Watergrass, Early plant response rating ([4]; 125 g ai/ha): 0
Watergrass, Early plant response rating ([4]; 250 g ai/ha): 0
Plant response rating, Watergrass, Early ([4]; 16 g ai/ha): 0
Junglerice plant response rating ([5]; 32 g ai/ha): 0
Junglerice plant response rating ([5]; 64 g ai/ha): 0
Junglerice plant response rating ([5]; 125 g ai/ha): 0
Junglerice plant response rating ([5]; 250 g ai/ha): 10
Plant response rating, Junglerice ([5]; 16 g ai/ha): 0
Redstem plant response rating ([6]; 32 g ai/ha): 75
Redstem plant response rating ([6]; 64 g ai/ha): 80
Redstem plant response rating ([6]; 125 g ai/ha): 90
Redstem plant response rating ([6]; 250 g ai/ha): 90
Plant response rating, Redstem ([6]; 16 g ai/ha): 0
Flatsedge, Rice plant response rating ([7]; 32 g ai/ha): 0
Flatsedge, Rice plant response rating ([7]; 64 g ai/ha): 0
Flatsedge, Rice plant response rating ([7]; 125 g ai/ha): 60
Flatsedge, Rice plant response rating ([7]; 250 g ai/ha): 80
Plant response rating, Flatsedge, Rice ([7]; 16 g ai/ha): 0
Rice, Transplanted plant response rating ([8]; 32 g ai/ha): 0
Rice, Transplanted plant response rating ([8]; 64 g ai/ha): 0
Rice, Transplanted plant response rating ([8]; 125 g ai/ha): 0
Rice, Transplanted plant response rating ([8]; 250 g ai/ha): 0
Plant response rating, Rice, Transplanted ([8]; 16 g ai/ha): 0
Rice, Water Seeded plant response rating ([9]; 32 g ai/ha): 0
Rice, Water Seeded plant response rating ([9]; 64 g ai/ha): 0
Rice, Water Seeded plant response rating ([9]; 125 g ai/ha): 0
Rice, Water Seeded plant response rating ([9]; 250 g ai/ha): 0
Plant response rating, Rice, Water Seeded ([9]; 16 g ai/ha): 0

COC(=O)c1nc(-c2ccc(Br)cc2)nc(N)c1Br [Compound 129]
Barnyardgrass plant response rating ([1]; 32 g ai/ha): 0
Barnyardgrass plant response rating ([1]; 64 g ai/ha): 0
Barnyardgrass plant response rating ([1]; 125 g ai/ha): 0
Barnyardgrass plant response rating ([1]; 250 g ai/ha): 0
Plant response rating, Barnyardgrass [1]: 0
Sprangletop, Brdd. plant response rating ([2]; 64 g ai/ha): 0
Sprangletop, Brdd. plant response rating ([2]; 125 g ai/ha): 0
Sprangletop, Brdd. plant response rating ([2]; 250 g ai/ha): 70
Plant response rating, Sprangletop, Brdd. ([2]; 16 g ai/ha): 0
Plant response rating, Sprangletop, Brdd. ([2]; 32 g ai/ha): 0
Ducksalad plant response rating ([3]; 32 g ai/ha): 100
Ducksalad plant response rating ([3]; 64 g ai/ha): 100
Ducksalad plant response rating ([3]; 125 g ai/ha): 100
Ducksalad plant response rating ([3]; 250 g ai/ha): 100
Plant response rating, Ducksalad [3]: 100
Watergrass, Early plant response rating ([4]; 64 g ai/ha): 0
Watergrass, Early plant response rating ([4]; 125 g ai/ha): 0
Watergrass, Early plant response rating ([4]; 250 g ai/ha): 0
Plant response rating, Watergrass, Early ([4]; 16 g ai/ha): 0
Plant response rating, Watergrass, Early ([4]; 32 g ai/ha): 0
Junglerice plant response rating ([5]; 64 g ai/ha): 0
Junglerice plant response rating ([5]; 125 g ai/ha): 0
Junglerice plant response rating ([5]; 250 g ai/ha): 0
Plant response rating, Junglerice ([5]; 16 g ai/ha): 0
Plant response rating, Junglerice ([5]; 32 g ai/ha): 0
Redstem plant response rating ([6]; 64 g ai/ha): 75
Redstem plant response rating ([6]; 125 g ai/ha): 80
Redstem plant response rating ([6]; 250 g ai/ha): 95
Plant response rating, Redstem ([6]; 16 g ai/ha): 30
Plant response rating, Redstem ([6]; 32 g ai/ha): 60
Flatsedge, Rice plant response rating ([7]; 64 g ai/ha): 100
Flatsedge, Rice plant response rating ([7]; 125 g ai/ha): 100
Flatsedge, Rice plant response rating ([7]; 250 g ai/ha): 100
Plant response rating, Flatsedge, Rice ([7]; 16 g ai/ha): 100
Plant response rating, Flatsedge, Rice ([7]; 32 g ai/ha): 100
Rice, Transplanted plant response rating ([8]; 64 g ai/ha): 0
Rice, Transplanted plant response rating ([8]; 125 g ai/ha): 0
Rice, Transplanted plant response rating ([8]; 250 g ai/ha): 0
Plant response rating, Rice, Transplanted ([8]; 16 g ai/ha): 0
Plant response rating, Rice, Transplanted ([8]; 32 g ai/ha): 0
Rice, Water Seeded plant response rating ([9]; 64 g ai/ha): 0
Rice, Water Seeded plant response rating ([9]; 125 g ai/ha): 0
Rice, Water Seeded plant response rating ([9]; 250 g ai/ha): 0
Plant response rating, Rice, Water Seeded ([9]; 16 g ai/ha): 0
Plant response rating, Rice, Water Seeded ([9]; 32 g ai/ha): 0
